In brackets after ≈: the same amount, converted by molar mass.
Key:
Streptococcus pyogenes = assay: MIC aerobic bacteria, standard agar-dilution assay; assay type: cell-based; conditions: Streptococcus pyogenes C203, 24 hours
Bacteroides corrodens = assay: MIC anaerobic bacteria, agar-dilution; assay type: cell-based; conditions: Bacteroides corrodens 1874
[1] = system: Peptostreptococcus anaerobius; assay: MIC anaerobic bacteria, agar-dilution; assay type: cell-based; conditions: Peptostreptococcus anaerobius 1428
[2] = system: Peptostreptococcus intermedius; assay: MIC anaerobic bacteria, agar-dilution; assay type: cell-based; conditions: Peptostreptococcus intermedius 1264
[3] = mice
Peptococcus prevoti = assay: MIC anaerobic bacteria, agar-dilution; assay type: cell-based; conditions: Peptococcus prevoti 1281
S. pyogenes = assay: In vivo oral activity against S. pyogenes in mice
[4] = system: Bacteroides melaninogenicus; assay: MIC anaerobic bacteria, agar-dilution; assay type: cell-based; conditions: Bacteroides melaninogenicus 2736
Propionibacterium acnes [5] = assay: MIC against Propionibacterium acnes strains, 24-hour agar-dilution; assay type: cell-based
From the text: Antibiotic A41030 factors A, B and C have been tested and found to be active against a genus of anaerobic bacteria identified as Propionibacterium acnes.

Clostridium difficile [6] = assay: MIC against Clostridium difficile strains, agar-dilution; assay type: cell-based
From the text: The A41030 antibiotic factors A, B, C, D, E, F, and G, are also active against a number of strains of Clostridium difficile, as determined by the agardilution method.

Solubility in solvents = assay type: physicochemical; conditions: qualitative
From the text: As many as seven antibiotic factors are recovered from the fermentation and are obtained as a mixture, the A41030 complex. It will be recognized that the ratio of the factors in the A41030 complex will vary, depending upon the fermentation conditions used. The individual factors A, B, C, D, E, F, and G are separated and isolated as individual compounds, as hereinafter described.

Bacteroides fragilis = assay: MIC anaerobic bacteria, agar-dilution; assay type: cell-based
[7] = Electrometric titration (pKa); assay type: physicochemical; conditions: electrometric titration in 66% dimethylformamide in water; stated as possible
From the text: Antibiotic A41030 factor A is a white, crystalline solid.

[8] = system: Bacteroides thetaiotaomicron; assay: MIC anaerobic bacteria, agar-dilution; assay type: cell-based; conditions: Bacteroides thetaiotaomicron 1438
Bacteroides vulgatis = assay: MIC anaerobic bacteria, agar-dilution; assay type: cell-based; conditions: Bacteroides vulgatis 1211
[9] = system: Staphylococcus epidermidis; assay: MIC aerobic bacteria, standard agar-dilution assay; assay type: cell-based
Streptococcus pneumoniae = assay: MIC aerobic bacteria, standard agar-dilution assay; assay type: cell-based; conditions: Streptococcus pneumoniae Park I, 24 hours
[10] = system: Streptococcus sp. Group D; assay: MIC aerobic bacteria, standard agar-dilution assay; assay type: cell-based
pseudorabies = assay type: cell-based
Staphylococcus aureus = assay: MIC aerobic bacteria, standard agar-dilution assay; assay type: cell-based; conditions: Staphylococcus aureus S13E; agar-dilution, 24 hours
Clostridium difficile [11] = assay: MIC anaerobic bacteria, agar-dilution; assay type: cell-based; conditions: Clostridium difficile 2994; agar-dilution (Table 9)
[12] = system: Fusobacterium necrophorum; assay: MIC anaerobic bacteria, agar-dilution; assay type: cell-based; conditions: Fusobacterium necrophorum 6054A
Fusobacterium symbiosum = assay: MIC anaerobic bacteria, agar-dilution; assay type: cell-based; conditions: Fusobacterium symbiosum 1470
Clostridium perfringens = assay type: cell-based; conditions: Clostridium perfringens 81; agar-dilution
Clostridium septicum = assay: MIC anaerobic bacteria, agar-dilution; assay type: cell-based; conditions: Clostridium septicum 1128
Haemophilus influenzae = assay: MIC aerobic bacteria, standard agar-dilution assay; assay type: cell-based
Propionibacterium acnes [13] = assay: MIC anaerobic bacteria, agar-dilution; assay type: cell-based; conditions: Propionibacterium acnes 79; agar-dilution (Table 9)
Eubacterium aerofaciens = assay: MIC anaerobic bacteria, agar-dilution; assay type: cell-based; conditions: Eubacterium aerofaciens 1235
[14] = system: Peptococcus asaccharolyticus; assay: MIC anaerobic bacteria, agar-dilution; assay type: cell-based; conditions: Peptococcus asaccharolyticus 1302
Klebsiella pneumoniae = assay: MIC aerobic bacteria, standard agar-dilution assay; assay type: cell-based; conditions: Klebsiella pneumoniae X26, 24 hours
[15] = Staphylococcus epidermidis EPI2, 24 hours
[16] = Streptococcus sp. Group D 9960, 24 hours
[17] = Streptococcus sp. Group D X66, 24 hours

NC1C(=O)NC2Cc3ccc(c(Cl)c3)Oc3cc4cc(c3O)Oc3ccc(cc3Cl)C(O)C3NC(=O)C(NC(=O)C4NC(=O)C(NC2=O)c2cc(O)cc(c2)Oc2cc1ccc2O)c1cc(Cl)c(O)c(c1)-c1c(O)cc(O)cc1C(C(=O)O)NC3=O (centres unmarked) [factor A, A41030 factor A]
MIC (Streptococcus pyogenes): 0.5 µg/mL (≈ 0.405 µM)
MIC (Bacteroides corrodens): 64 µg/mL (≈ 51.9 µM)
MIC [1]: ≤ 0.25 µg/mL
MIC [2]: 1.0 µg/mL (≈ 0.811 µM)
LD50 [3]: > 300 mg/kg
acute toxicity [3]: > 300 mg/kg
MIC (Peptococcus prevoti): ≤ 0.25 µg/mL
in vivo oral activity (S. pyogenes): > 300 mg./kg.×2
MIC [4]: 4 µg/mL (≈ 3.24 µM)
MIC (Propionibacterium acnes [5]; P. acnes strain 104): 0.25 µg/mL (≈ 0.203 µM)
MIC (Propionibacterium acnes [5]; P. acnes strain 107): 0.06 µg/mL (≈ 0.0486 µM)
MIC (Propionibacterium acnes [5]; P. acnes strain 5170): ≤ 0.03 µg/mL
MIC (Propionibacterium acnes [5]; P. acnes strain 5176): ≤ 0.03 µg/mL
MIC (Propionibacterium acnes [5]; P. acnes strain 5187): ≤ 0.03 µg/mL
MIC (Propionibacterium acnes [5]; P. acnes strain 5197): ≤ 0.03 µg/mL
MIC (Propionibacterium acnes [5]; P. acnes strain 5226): 0.5 µg/mL (≈ 0.405 µM)
MIC (Propionibacterium acnes [5]; P. acnes strain 5227): ≤ 0.03 µg/mL
MIC (Propionibacterium acnes [5]; P. acnes strain 5228): 1.0 µg/mL (≈ 0.811 µM)
MIC (Propionibacterium acnes [5]; P. acnes strain 5229): 0.5 µg/mL (≈ 0.405 µM)
MIC (Propionibacterium acnes [5]; P. acnes strain 5246): 0.06 µg/mL (≈ 0.0486 µM)
MIC (Propionibacterium acnes [5]; P. acnes strain 5292): 0.06 µg/mL (≈ 0.0486 µM)
MIC (Clostridium difficile [6]; Clostridium difficile 78): 1.0 µg/mL (≈ 0.811 µM)
MIC (Clostridium difficile [6]; Clostridium difficile 107B): 1.0 µg/mL (≈ 0.811 µM)
MIC (Clostridium difficile [6]; Clostridium difficile 111F): 1.0 µg/mL (≈ 0.811 µM)
MIC (Clostridium difficile [6]; Clostridium difficile 1153): 1.0 µg/mL (≈ 0.811 µM)
MIC (Clostridium difficile [6]; Clostridium difficile 2634): 1.0 µg/mL (≈ 0.811 µM)
MIC (Clostridium difficile [6]; Clostridium difficile 3424-5B): 1.0 µg/mL (≈ 0.811 µM)
MIC (Clostridium difficile [6]; Clostridium difficile 3816): 1.0 µg/mL (≈ 0.811 µM)
MIC (Clostridium difficile [6]; Clostridium difficile 3950D): 1.0 µg/mL (≈ 0.811 µM)
MIC (Clostridium difficile [6]; Clostridium difficile 6890): 1.0 µg/mL (≈ 0.811 µM)
MIC (Clostridium difficile [6]; Clostridium difficile 8484): 1.0 µg/mL (≈ 0.811 µM)
MIC (Clostridium difficile [6]; Clostridium difficile A-194): 1.0 µg/mL (≈ 0.811 µM)
MIC (Clostridium difficile [6]; Clostridium difficile A-195): 1.0 µg/mL (≈ 0.811 µM)
MIC (Clostridium difficile [6]; Clostridium difficile A-196): 1.0 µg/mL (≈ 0.811 µM)
MIC (Clostridium difficile [6]; Clostridium difficile A-279): 1.0 µg/mL (≈ 0.811 µM)
MIC (Clostridium difficile [6]; Clostridium difficile A-280): 1.0 µg/mL (≈ 0.811 µM)
MIC (Clostridium difficile [6]; Clostridium difficile A-281): 1.0 µg/mL (≈ 0.811 µM)
MIC (Clostridium difficile [6]; Clostridium difficile WAL-2112): 1.0 µg/mL (≈ 0.811 µM)
MIC (Clostridium difficile [6]; Clostridium difficile WAL-3657): 1.0 µg/mL (≈ 0.811 µM)
MIC (Clostridium difficile [6]; Clostridium difficile WAL-4268): 1.0 µg/mL (≈ 0.811 µM)
solubility (solvents) (Solubility in solvents): soluble in alcohol-water mixtures, in dimethylsulfoxide, in dimethylformamide, in dimethylsulfoxide-water mixtures, in dimethylformamide-water mixtures, in dilute aqueous acid, and in dilute aqueous base
MIC (Bacteroides fragilis; Bacteroides fragilis 1877): 32 µg/mL (≈ 25.9 µM)
MIC (Bacteroides fragilis; Bacteroides fragilis 1936B): 64 µg/mL (≈ 51.9 µM)
possibly additional pKa's [7]: > 10.5
MIC [8]: 64 µg/mL (≈ 51.9 µM)
MIC (Bacteroides vulgatis): 32 µg/mL (≈ 25.9 µM)
MIC [9, 15]: 1 µg/mL (≈ 0.811 µM)
MIC (Streptococcus pneumoniae): 0.5 µg/mL (≈ 0.405 µM)
MIC [10, 16]: 2 µg/mL (≈ 1.62 µM)
MIC [10, 17]: 1 µg/mL (≈ 0.811 µM)
concentration at which activity in vitro was shown (pseudorabies): 20 µg/mL
MIC (Staphylococcus aureus): 0.25 µg/mL (≈ 0.203 µM)
MIC (Clostridium difficile [11]): 32 µg/mL (≈ 25.9 µM)
MIC [12]: 8 µg/mL (≈ 6.49 µM)
MIC (Fusobacterium symbiosum): 1.0 µg/mL (≈ 0.811 µM)
MIC (Clostridium perfringens): 0.5 µg/mL (≈ 0.405 µM)
MIC (Clostridium septicum): 2 µg/mL (≈ 1.62 µM)
MIC (Haemophilus influenzae; Haemophilus influenzae 251, 24 hours): 2 µg/mL (≈ 1.62 µM)
MIC (Haemophilus influenzae; Haemophilus influenzae Brun, 24 hours): 8 µg/mL (≈ 6.49 µM)
MIC (Propionibacterium acnes [13]): ≤ 0.25 µg/mL

A41030 factor G
MIC (Streptococcus pyogenes): 2 µg/mL
MIC (Bacteroides corrodens): 32 µg/mL
MIC [1]: ≤ 0.5 µg/mL
MIC [2]: 2 µg/mL
MIC (Peptococcus prevoti): 2 µg/mL
MIC [4]: 64 µg/mL
MIC (Clostridium difficile [6]; Clostridium difficile 78): 1.0 µg/mL
MIC (Clostridium difficile [6]; Clostridium difficile 107B): 1.0 µg/mL
MIC (Clostridium difficile [6]; Clostridium difficile 111F): 1.0 µg/mL
MIC (Clostridium difficile [6]; Clostridium difficile 1153): 1.0 µg/mL
MIC (Clostridium difficile [6]; Clostridium difficile 2634): 1.0 µg/mL
MIC (Clostridium difficile [6]; Clostridium difficile 3424-5B): 1.0 µg/mL
MIC (Clostridium difficile [6]; Clostridium difficile 3816): 1.0 µg/mL
MIC (Clostridium difficile [6]; Clostridium difficile 3950D): 1.0 µg/mL
MIC (Clostridium difficile [6]; Clostridium difficile 6890): 1.0 µg/mL
MIC (Clostridium difficile [6]; Clostridium difficile 8484): 1.0 µg/mL
MIC (Clostridium difficile [6]; Clostridium difficile A-194): 1.0 µg/mL
MIC (Clostridium difficile [6]; Clostridium difficile A-195): 1.0 µg/mL
MIC (Clostridium difficile [6]; Clostridium difficile A-196): 1.0 µg/mL
MIC (Clostridium difficile [6]; Clostridium difficile A-279): 1.0 µg/mL
MIC (Clostridium difficile [6]; Clostridium difficile A-280): 1.0 µg/mL
MIC (Clostridium difficile [6]; Clostridium difficile A-281): 1.0 µg/mL
MIC (Clostridium difficile [6]; Clostridium difficile WAL-2112): 1.0 µg/mL
MIC (Clostridium difficile [6]; Clostridium difficile WAL-3657): 1.0 µg/mL
MIC (Clostridium difficile [6]; Clostridium difficile WAL-4268): 1.0 µg/mL
solubility (solvents) (Solubility in solvents): soluble in the same solvents as is factor A
MIC (Bacteroides fragilis; Bacteroides fragilis 111): 32 µg/mL
MIC (Bacteroides fragilis; Bacteroides fragilis 1877): 32 µg/mL
MIC (Bacteroides fragilis; Bacteroides fragilis 1936B): 64 µg/mL
MIC [8]: 64 µg/mL
MIC (Bacteroides vulgatis): 64 µg/mL
MIC ([9]; Staphylococcus epidermidis EPI1, 24 hours): 0.5 µg/mL
MIC [9, 15]: 0.5 µg/mL
MIC (Streptococcus pneumoniae): 2 µg/mL
MIC [10, 16]: 4 µg/mL
MIC [10, 17]: 4 µg/mL
MIC (Clostridium difficile [11]): 2 µg/mL
MIC [12]: 2 µg/mL
MIC (Eubacterium aerofaciens): 2 µg/mL
MIC (Fusobacterium symbiosum): 2 µg/mL
MIC (Clostridium perfringens): 2 µg/mL
MIC [14]: 1.0 µg/mL
MIC (Clostridium septicum): 2 µg/mL
MIC (Haemophilus influenzae; Haemophilus influenzae 76, 24 hours): 32 µg/mL
MIC (Haemophilus influenzae; Haemophilus influenzae C.L., 24 hours): 32 µg/mL
MIC (Propionibacterium acnes [13]): 1.0 µg/mL
MIC (Klebsiella pneumoniae): 64 µg/mL

Reference: patent US4695545A, “Culture and process for producing A41030 antibiotics” (Eli Lilly and Company, priority 1984, dated 1987)
